According to patent US11130780B2, “Inhibitors of growth factor activation enzymes” (Washington University, priority 2015, dated 2021):
pKi: −log10 of the molar value. Read-outs that look alike come from different tables or passages of the source. Positions of bridges follow the written chain, without caps; N, C: chain ends. Residues, ends and D or L forms follow the SMILES beside them. *: point of attachment. X2 = N=C(N)NCCC[C@H](N*)C(=O)c1nccs1

Tests used:
Type in all cases: biochemical
[1] = target: T1, HGFA (Homo sapiens, UniProt Q04756); assay: Fluorescent kinetic enzyme inhibitor assay of HGFA; settings: read-out: HGFA Ki
T1 construct: His6 tag (N); seven amino acid spacer and seven amino acid TEV cleavage site (N); Honey Bee melittin signal peptide (N); made in house; host or cells: High 5 insect cells (baculovirus; virus raised in Sf9)
T1 sequence (Q04756 373-655): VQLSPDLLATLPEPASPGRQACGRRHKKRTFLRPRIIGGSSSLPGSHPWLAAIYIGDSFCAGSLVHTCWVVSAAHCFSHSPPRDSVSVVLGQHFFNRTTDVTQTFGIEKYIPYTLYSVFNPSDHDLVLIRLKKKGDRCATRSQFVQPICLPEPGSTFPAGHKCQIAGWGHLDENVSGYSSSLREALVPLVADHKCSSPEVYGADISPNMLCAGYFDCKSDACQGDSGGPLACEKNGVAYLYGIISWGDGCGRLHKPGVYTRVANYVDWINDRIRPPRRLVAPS
Source text: Using primers identified as SEQ ID NO 1, SEQ ID NO 2, and standard PCR protocols, the nucleotide sequence encoding amino acids 373-655 of HGFA was synthesized. This PCR product was cloned into the SfoI-HindIII sites of a modified pFastBac HT baculovirus expression vector (Addgene, Cambridge, Mass.). This vector contains a six amino His tag followed by a seven amino spacer and a seven amino acid TEV cleavage site placed immediately downstream of the Honey Bee melittin signal peptide. Using a modified Bac to Bac Expression System (Life Technologies, Carlsbad, Calif.), recombinant HGFA bacmids were obtained by transforming DH10Bac Escherichia coli cells. To obtain HGFA containing baculovirus, purified bacmids were transfected into Sf9 insect cells. After 5 days in culture at 27° C., media was harvested from transfected Sf9 cells. This media was used to prepare baculovirus infected insect cells (BIICs). These BIIICs were used to infect High 5 insect cells. Four days post infection, media was harvested and recombinant protein prepared as follows. Media was chilled to 4° C. and spun at 4000×g for 20 minutes (all subsequent steps were performed at 4° C. unless noted). Clarified media was passed first through a Whatman GF/B 1 um (#1821-047, GE Healthcare Life Sciences, Piscataway, N.J.) and then a 0.22 um PES membrane (#99955, TPP Techno Plastic Products AG, Trasadingen, Switzerland) and then concentrated using a Pall Centramate tangential flow system and Centramate T-series Cassette (#OS010T12, Pall Corporation, Port Washington, N.Y.). Concentrated media was then buffer exchanged in two steps, five volumes of 50 mM Na-phosphate, 500 mM NaCl, pH 6.2, followed by five volumes of 50 mM Na-phosphate, 500 mM NaCl, pH 7.5. The concentrated and buffered exchanged insect cell media was again filtered as above and made 25 mM imidazole (#1202, Sigma-Aldrich, St. Louis, Mo.) and was mixed with nickel agarose beads (#H-321-25, Gold Biotechnology, Inc., St. Louis Mo.). After mixing this slurry for 12 hours, nickel agarose beads were allowed to settle by gravity and then loaded into a column. Beads were washed with buffer (25 mM Na-phosphate, 500 mM NaCl, 25 mM imidazole, pH 8) and the bound protein eluted using (25 mM Na-phosphate, 500 mM NaCl, 250 mM imidazole, pH 8). Using a Amicon Ultra-4 Centrifugal filters (#UFC801008, Merck Millipore, Ltd., Tullagreen, Ireland), peak protein fractions were concentrated and run over a Superdex-200 10/300 GL column (GE Healthcare Life Sciences, Piscataway, N.J.) in 10 mM Tris, 200 mM NaCl, 0.2 mM EDTA, pH 8. HGFA containing fractions were pooled, concentrated, made 50% glycerol, and stored at minus 20° C. Protein was quantitated using a modified Lowry protein assay (#500-0006, Bio-Rad Laboratories, Hercules, Calif.).
Inhibitors (11-pt serial dilutions, 0-20 μM final concentration in reaction) were serially diluted in DMSO (2% DMSO final concentration) and then mixed with either recombinant serine protease domain of HGFA [Z. Han, P. K. Harris, D. E. Jones, R. Chugani, T. Kim, M. Agarwal, W. Shen, S. A. Wildman, J. W. Janetka, Acs Med Chem Lett 2014, 5, 1219-1224], matriptase (Charles Craik, UCSF) or hepsin* (#4776-SE-010, R&D Systems, Minneapolis, Minn.) in black 384 well plates (Corning #3575. Corning, N.Y.). […] The final substrate concentrations for all assays were at the Km for the respective enzymes. Changes in fluorescence (excitation at 380 nm and emission at 460 nm) were measured at room temperature over time in a Biotek Synergy 2 plate reader (Winnoski, Vt.). Using GraphPad Prism version 6.04 software program, (GraphPad Software, San Diego, Calif., www.graphpad.com), a four parameter curve fit was used to determine the inhibitor IC50s from a plot of the mean reaction velocity versus the inhibitor concentration. The IC50 values represent the average of three separate experimental determinations.

[2] = target: T2, hepsin (Homo sapiens, UniProt P05981); assay: P4-P2 substrate specificity using HyCoSuL, hepsin; design: concentration or dose not given beside the values; settings: HyCoSuL substrate library; for P2 Position % Activity Hepsin: amino acid fixed at P2 position; for P3 Position % Activity Hepsin: amino acid fixed at P3 position; for P4 Position % Activity Hepsin: amino acid fixed at P4 position
T2 construct: purchased R&D Systems 4776-SE-010
Description: (§1) Each of the P4, P3, and P2 sublibraries were screened at the 100 μM concentration with hepsin either HGFA in a 100 μL final volume per well (99 μL of protease in buffer+1 μL of 10 mM substrates mixture). The total time of the assay was 30 minutes, however only linear portions of the progress curve (5-15 minutes) were used for velocity (RFU/s) calculations. Each sublibrary screening was repeated at least 3-times and the average value calculated from each measurement was used to create the substrate specificity matrix—the best recognized amino acid in each position was set to 100%, and other amino acids were adjusted accordingly.
Recombinant human hepsin (10 μg in 20 uL, 4776-SE-010, R&D Systems) was added to the 100 μL of activation buffer (0.1 M Tris, 0.15 M NaCl, 0.01 M CaCl2, 0.05% TRITON-X, pH=8.0) and incubated at 37° C. for 24 hours (hepsin concentration in activation buffer 2 μM). Once activated hepsin was diluted in assay buffer (0.05 M Tris, pH=9.0) to the final concentration of 4 nM and incubated at 37° C. for 15 minutes before added to a substrate.

[3] = target: T3, HGFA (Homo sapiens, UniProt Q04756); assay: P4-P2 substrate specificity using HyCoSuL, HGFA; design: P3 Position % Activity HGFA / P2 Position % Activity HGFA: concentration or dose not given beside the values; P4 Position % Activity HGFA: tested at 100 µM; settings: HyCoSuL substrate library; for P2 Position % Activity HGFA: amino acid fixed at P2 position; for P3 Position % Activity HGFA: amino acid fixed at P3 position; for P4 Position % Activity HGFA: amino acid fixed at P4 position
T3 sequence (Q04756 408-655 limits assumed): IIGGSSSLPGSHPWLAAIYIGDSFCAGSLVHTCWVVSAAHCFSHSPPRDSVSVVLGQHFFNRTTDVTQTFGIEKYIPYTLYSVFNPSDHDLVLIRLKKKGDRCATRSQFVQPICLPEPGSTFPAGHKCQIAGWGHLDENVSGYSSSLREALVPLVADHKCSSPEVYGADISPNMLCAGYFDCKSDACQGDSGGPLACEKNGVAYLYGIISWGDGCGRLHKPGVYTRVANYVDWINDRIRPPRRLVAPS
T3 sequence (Q04756 373-407 partner limits assumed): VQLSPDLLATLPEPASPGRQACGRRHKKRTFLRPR
Description: as §1
HFGA enzyme was diluted in the assay buffer (0.15 M NaCl, 0.025 M Tris, 0.005 M CaCl2, pH=8.0) to the final concentration of 10-20 nM (depending of sublibrary) and incubated at 25° C. for 30 minutes before added to a substrate.

T2 sequence (P05981 163-417 limits assumed): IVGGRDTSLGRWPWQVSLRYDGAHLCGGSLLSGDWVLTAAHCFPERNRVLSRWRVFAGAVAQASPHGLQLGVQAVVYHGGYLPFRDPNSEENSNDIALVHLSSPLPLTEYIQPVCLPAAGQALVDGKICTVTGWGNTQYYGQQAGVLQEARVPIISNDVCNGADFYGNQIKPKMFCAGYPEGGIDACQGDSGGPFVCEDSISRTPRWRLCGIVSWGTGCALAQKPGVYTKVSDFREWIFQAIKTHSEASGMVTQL
T2 sequence (P05981 45-162 partner limits assumed): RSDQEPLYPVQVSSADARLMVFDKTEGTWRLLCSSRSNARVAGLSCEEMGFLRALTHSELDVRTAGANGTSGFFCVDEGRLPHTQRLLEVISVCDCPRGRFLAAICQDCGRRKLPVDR

Compound	pKi ([1]; Table 6.1, Fluorogenic Assay)	further results
N=C(N)NCCC[C@H](NC(=O)[C@H](Cc1ccccc1)NC(=O)[C@@H](N)Cc1c[nH]c2ccccc12)C(=O)c1nc2ccccc2s1 [Compound 1-13A1, H-WFR-kbt]	5.25	
CC(C)C[C@H](NC(=O)[C@H](N)Cc1c[nH]c2ccccc12)C(=O)N[C@@H](CCCNC(=N)N)C(=O)c1nc2ccccc2s1 [Compound 1-15A1, H-dWLR-kbt]	6.89	
N=C(N)NCCC[C@H](NC(=O)[C@H](Cc1ccccc1)NC(=O)[C@H](N)Cc1c[nH]c2ccccc12)C(=O)c1nc2ccccc2s1 [Compound 1-18A1, H-dWFR-kbt]	5.65	
CC(C)C[C@H](NC(=O)[C@H](Cc1c[nH]c2ccccc12)NC(=O)[C@@H](N)Cc1cncn1COCc1ccccc1)C(=O)N[C@@H](CCCNC(=N)N)C(=O)c1nc2ccccc2s1 [Compound 1-54A1, H-His(Bom)WLR-kbt]	5.43	
CC(C)C[C@H](NC(=O)[C@@H](N)Cc1c[nH]c2ccccc12)C(=O)N[C@@H](CCCNC(=N)N)C(=O)c1nc2ccc(C(=O)O)cc2s1 [Compound 1-56A1, H-WLR-kbt-COOH]	5.86	
CC(C)C[C@H](NC(=O)[C@H](N)Cc1c[nH]c2ccccc12)C(=O)N[C@@H](CCCNC(=N)N)C(=O)c1nc2ccc(C(=O)O)cc2s1 [Compound 1-57A1, H-dWLR-kbt-COOH]	6.46	
CC(C)C[C@H](NC(=O)[C@H](CCCNC(=N)N)NC(=O)[C@H](CCCCN)NC(=O)CCCCC[N+]1=C(/C=C/C=C/C=C2/N(C)c3ccc4ccccc4c3C2(C)C)C(C)(C)c2c1ccc1ccccc21)C(=O)N[C@@H](CCCNC(=N)N)C(=O)c1nc2ccccc2s1 [Compound 1178-2, Cy5.5-KRLR(SEQ ID NO: 8)-kbt]	6.22	
CC(C)C[C@H](NC(=O)[C@H](CCCNC(=N)N)NC(=O)[C@H](CCCCN)NC(=O)CCCCC[N+]1=C(/C=C/C=C/C=C2/N(C)c3ccc4ccccc4c3C2(C)C)C(C)(C)c2c1ccc1ccccc21)C(=O)N[C@@H](CCCNC(=N)N)C(=O)CCl [Compound 1179, Cy5.5-KRLR(SEQ ID NO: 8)-cmk]	7.47	
N=C(N)NCCC[C@H](NC(=O)[C@@H]1CC(=O)NCCCC[C@H](N)C(=O)N[C@@H](CCC(N)=O)C(=O)N1)C(=O)N[C@@H](CCCNC(=N)N)C(=O)c1nccs1 [Compound 7074, (2S,5S,13S)-13-amino-2-(3-amino-3-oxopropyl)-N—((S)-5-guanidino-1-(((S)-5-guanidino-1-oxo-1-(thiazol-2-yl)pentan-2-yl)amino)-1-oxopentan-2-yl)-3,7,14-trioxo-1,4,8-triazacyclotetradecane-5-carboxamide] (H-KQDR-X2; lactam 1-3)		pKi ([1]; Table 7.1, first HGFA column): 5.23; pKi ([1]; Table 7.1, second column headed HGFA): 8.81
N=C(N)NCCC[C@H](NC(=O)[C@H](CC(N)=O)NC(=O)OCC1c2ccccc2-c2ccccc21)C(=O)c1nc2ccccc2s1 [Compound 7185-3, Fmoc-NR-kbt]	< 4.70	
N=C(N)NCCC[C@H](NC(=O)[C@H](CC(=O)O)NC(=O)OCC1c2ccccc2-c2ccccc21)C(=O)c1nc2ccccc2s1 [Compound 7185-4, Fmoc-DR-kbt]	< 4.70	
N=C(N)NCCC[C@H](NC(=O)[C@H](CCC(=O)O)NC(=O)OCC1c2ccccc2-c2ccccc21)C(=O)c1nc2ccccc2s1 [Compound 7185-7, Fmoc-ER-kbt]	< 4.70	
N=C(N)NCCC[C@H](NC(=O)[C@H](Cc1cnc[nH]1)NC(=O)OCC1c2ccccc2-c2ccccc21)C(=O)c1nc2ccccc2s1 [Compound 7185-9, Fmoc-HR-kbt]	5.20	
CC[C@H](C)[C@H](NC(=O)OCC1c2ccccc2-c2ccccc21)C(=O)N[C@@H](CCCNC(=N)N)C(=O)c1nc2ccccc2s1 [Compound 7185-10, Fmoc-IR-kbt]	5.19	
N=C(N)NCCC[C@H](NC(=O)[C@H](CCCCN)NC(=O)OCC1c2ccccc2-c2ccccc21)C(=O)c1nc2ccccc2s1 [Compound 7185-12, Fmoc-KR-kbt]	< 4.70	
N=C(N)NCCC[C@H](NC(=O)[C@@H]1CCCN1C(=O)OCC1c2ccccc2-c2ccccc21)C(=O)c1nc2ccccc2s1 [Compound 7187-15, Fmoc-PR-kbt]	< 4.70	
N=C(N)NCCC[C@H](NC(=O)[C@H](CO)NC(=O)OCC1c2ccccc2-c2ccccc21)C(=O)c1nc2ccccc2s1 [Compound 7187-16, Fmoc-SR-kbt]	< 4.70	
C[C@@H](O)[C@H](NC(=O)OCC1c2ccccc2-c2ccccc21)C(=O)N[C@@H](CCCNC(=N)N)C(=O)c1nc2ccccc2s1 [Compound 7188-17, Fmoc-TR-kbt]	< 4.70	
D-Arg		P2 Position % Activity Hepsin [2]: 0.00%; P3 Position % Activity Hepsin [2]: 66.08%; P4 Position % Activity Hepsin [2]: 44.37%; P2 Position % Activity HGFA [3]: 0.00%; P3 Position % Activity HGFA [3]: 29.10%; P4 Position % Activity HGFA [3]: 23.20%
D-His		P2 Position % Activity Hepsin [2]: 0.00%; P3 Position % Activity Hepsin [2]: 40.09%; P4 Position % Activity Hepsin [2]: 19.33%; P2 Position % Activity HGFA [3]: 0.00%; P3 Position % Activity HGFA [3]: 11.09%; P4 Position % Activity HGFA [3]: 7.79%
